For orientation: Ki means a dissociation constant, usually derived from enzyme kinetics or from competition with a known ligand. The EC50 is the midpoint of the concentration-response curve. Read a high EC50 as weaker potency.

*1 amine or outer side, *2 acyl side, *3 side chain or, on linkers, in order; H or OH if unused. Where a SMILES comes first, the peptide text is derived from it. [ ]: non-standard residue; d: D form. Ala(2-NH2-benzothiazol-6-yl) = Nc1nc2ccc(C[C@H](N)C(=O)O)cc2s1; Phe(2,6-Me2,4-CONH2) = Cc1cc(C(N)=O)cc(C)c1C[C@H](N)C(=O)O; Phe(3-CONH2) = NC(=O)c1cccc(C[C@H](N)C(=O)O)c1; Phe(4-CONH2) = NC(=O)c1ccc(C[C@H](N)C(=O)O)cc1; X1 = O=C([C@H](Cc1cc[n+]([O-])cc1)N[*:1])[*:2] Some results are limits rather than exact numbers.

Results on 20 compounds are retold here after ChEMBL document CHEMBL1139195, “Further studies of tyrosine surrogates in opioid receptor peptide ligands” (Bioorg Med Chem Lett, 2007).

The target in experiment [1] is Kappa-type opioid receptor (Homo sapiens, UniProt P41145).
Kappa-type opioid receptor, sequence (P41145 whole entry): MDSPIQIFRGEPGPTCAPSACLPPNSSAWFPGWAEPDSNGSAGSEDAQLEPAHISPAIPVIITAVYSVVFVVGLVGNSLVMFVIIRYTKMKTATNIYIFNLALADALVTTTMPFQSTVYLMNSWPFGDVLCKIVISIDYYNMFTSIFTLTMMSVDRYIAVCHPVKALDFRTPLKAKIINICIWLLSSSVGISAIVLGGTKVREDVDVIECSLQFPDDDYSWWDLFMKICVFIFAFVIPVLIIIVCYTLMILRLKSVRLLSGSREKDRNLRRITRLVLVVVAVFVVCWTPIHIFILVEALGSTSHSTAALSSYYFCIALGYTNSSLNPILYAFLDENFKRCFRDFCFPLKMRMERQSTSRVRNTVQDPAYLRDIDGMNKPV
Experiment [2] addresses T1, Mu-type opioid receptor (Homo sapiens, UniProt P35372).
The target of experiment [3] is T2, Delta-type opioid receptor (Homo sapiens, UniProt P41143). It counts as functional.
T2 sequence (P41143 whole entry): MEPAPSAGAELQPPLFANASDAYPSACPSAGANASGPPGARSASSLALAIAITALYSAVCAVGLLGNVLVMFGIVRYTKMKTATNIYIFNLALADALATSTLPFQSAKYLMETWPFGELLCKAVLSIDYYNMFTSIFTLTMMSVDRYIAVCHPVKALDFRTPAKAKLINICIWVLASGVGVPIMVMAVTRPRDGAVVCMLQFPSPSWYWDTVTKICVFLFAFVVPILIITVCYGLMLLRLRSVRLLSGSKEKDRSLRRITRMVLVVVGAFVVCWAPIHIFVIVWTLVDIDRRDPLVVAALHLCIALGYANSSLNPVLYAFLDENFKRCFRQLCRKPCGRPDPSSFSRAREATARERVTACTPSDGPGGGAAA
Experiment [4] has as its target T2, Delta-type opioid receptor.
In experiment [5] the target is T1, Mu-type opioid receptor. It counts as functional.

T1 sequence (P35372 whole entry): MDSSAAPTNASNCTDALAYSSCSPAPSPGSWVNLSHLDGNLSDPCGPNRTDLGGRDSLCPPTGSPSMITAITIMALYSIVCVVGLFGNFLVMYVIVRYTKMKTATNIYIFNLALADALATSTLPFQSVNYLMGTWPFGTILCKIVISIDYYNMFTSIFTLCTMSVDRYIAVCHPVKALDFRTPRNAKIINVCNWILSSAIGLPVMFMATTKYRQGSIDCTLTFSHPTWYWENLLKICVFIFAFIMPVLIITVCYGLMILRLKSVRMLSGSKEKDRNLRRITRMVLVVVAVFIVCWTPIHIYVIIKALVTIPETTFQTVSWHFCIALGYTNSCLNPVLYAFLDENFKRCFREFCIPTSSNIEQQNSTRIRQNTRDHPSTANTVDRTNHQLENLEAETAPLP

For the compound `CSCC[C@H](NC(=O)[C@H](Cc1ccccc1)NC(=O)CNC(=O)CNC(=O)[C@@H](N)Cc1ccc(O)cc1)C(=O)O`, the Ki in experiment [1] is > 10000 nM.

For the compound `CC1(C)SSC(C)(C)[C@@H](NC(=O)[C@@H](N)Cc2ccc(C(N)=O)cc2)C(=O)NCC(=O)N[C@@H](Cc2ccccc2)C(=O)N[C@H]1C(=O)O`, the Ki in experiment [2] was > 10000 nM; in experiment [1] it was > 10000 nM; in experiment [4], 19 nM. Further, the EC50 in experiment [3] was determined as 320 nM.

For the compound `CC(C)C[C@H](NC(=O)[C@H](Cc1ccccc1)NC(=O)CNC(=O)[C@@H](CO)NC(=O)[C@@H](N)Cc1ccc2nc(N)sc2c1)C(=O)N[C@H](C(=O)O)[C@@H](C)O`, the Ki in experiment [2] was 640 nM; in experiment [1], > 10000 nM; in experiment [4] it was 3.8 nM. In experiment [3], this compound came in with an EC50 of 97 nM.

Regarding `CSCC[C@H](NC(=O)[C@H](Cc1ccccc1)NC(=O)CNC(=O)[C@@H](C)NC(=O)[C@@H](N)Cc1ccc2nc(N)sc2c1)C(=O)O`, the values for the Ki in experiment [2], in experiment [1] and in experiment [4] were 100 nM, > 10000 nM and 1 nM, respectively. Also, the half-maximal effective concentration (EC50) was found to be 24 nM in experiment [3] and 350 nM in experiment [5].

On to `CC(C)C[C@@H](NC(=O)[C@H](Cc1ccccc1)NC(=O)CNC(=O)[C@@H](C)NC(=O)[C@@H](N)Cc1cccc(C(N)=O)c1)C(=O)O`, for which the Ki in experiment [2] is 560 nM; in experiment [1] it was > 10000 nM; in experiment [4] it was 170 nM. In experiment [3], this compound yielded an EC50 of 1700 nM.

Regarding `CC(C)C[C@H](NC(=O)[C@H](Cc1ccccc1)NC(=O)CNC(=O)[C@@H](CO)NC(=O)[C@@H](N)Cc1cc[n+]([O-])cc1)C(=O)N[C@H](C(=O)O)[C@@H](C)O`, the Ki in experiment [2] is > 10000 nM; in experiment [1], > 10000 nM; in experiment [4], 360 nM.

Regarding `CC(C)C[C@@H](NC(=O)[C@H](Cc1ccccc1)NC(=O)CNC(=O)[C@@H](C)NC(=O)[C@@H](N)Cc1ccc2nc(N)sc2c1)C(=O)O`, the values for the Ki in experiment [2], in experiment [1] and in experiment [4] were 1200 nM, > 10000 nM and 10 nM, respectively. Further, the EC50 in experiment [3] stood at 150 nM.

Turning to `CC(C)C[C@@H](NC(=O)[C@H](Cc1ccccc1)NC(=O)CNC(=O)[C@@H](C)NC(=O)[C@@H](N)Cc1ccc(C(=O)O)cc1)C(=O)O`, the Ki in experiment [2] is > 10000 nM; in experiment [1] it was > 10000 nM; in experiment [4] it was 1100 nM.

As for `CC(C)C[C@@H](NC(=O)[C@H](Cc1ccccc1)NC(=O)CNC(=O)[C@@H](C)NC(=O)[C@@H](N)Cc1ccc(N)cc1)C(=O)O`, the Ki is 1400 nM in experiment [2], > 10000 nM in experiment [1] and 19 nM in experiment [4]. Further, in experiment [3], the EC50 turned out to be 74 nM.

On to `CSCC[C@H](NC(=O)[C@H](Cc1ccccc1)NC(=O)CNC(=O)CNC(=O)[C@@H](N)Cc1ccc(O)cc1)C(N)=O`, for which the Ki in experiment [1] came to 210 nM.

As for `CC(C)C[C@@H](NC(=O)[C@H](Cc1ccccc1)NC(=O)CNC(=O)[C@@H](C)NC(=O)[C@@H](N)Cc1cc[n+]([O-])cc1)C(=O)O`, the inhibition constant (Ki) in experiment [2], in experiment [1] and in experiment [4] was > 10000 nM throughout.

With `Cc1cc(C(N)=O)cc(C)c1C[C@H](N)C(=O)N[C@H](C)C(=O)NCC(=O)N[C@@H](Cc1ccccc1)C(=O)N[C@H](CC(C)C)C(=O)O`, the Ki in experiment [2] turned out to be 9.8 nM; in experiment [1], 2400 nM; in experiment [4], 0.78 nM. Besides, the EC50 stood at 2.5 nM in experiment [3] and 49 nM in experiment [5].

As for `Cc1cc(C(N)=O)cc(C)c1C[C@H](N)C(=O)N[C@H](CO)C(=O)NCC(=O)N[C@@H](Cc1ccccc1)C(=O)N[C@@H](CC(C)C)C(=O)N[C@H](C(=O)O)[C@@H](C)O`, the results for the Ki in experiment [2], in experiment [1] and in experiment [4] were 19 nM, > 10000 nM and 1.2 nM, respectively. For the same compound, the EC50 in experiment [3] stood at 3.5 nM; in experiment [5], 250 nM.

On to `CC(C)C[C@H](NC(=O)[C@H](Cc1ccccc1)NC(=O)CNC(=O)[C@@H](CO)NC(=O)[C@@H](N)Cc1cccc(C(N)=O)c1)C(=O)N[C@H](C(=O)O)[C@@H](C)O`, for which the Ki is 1100 nM in experiment [2], > 10000 nM in experiment [1] and 42 nM in experiment [4]. In experiment [3], this compound came in with an EC50 of 730 nM.

As for `CC(C)C[C@H](NC(=O)[C@H](Cc1ccccc1)NC(=O)CNC(=O)CNC(=O)[C@@H](N)Cc1ccc2nc(N)sc2c1)C(=O)O` (H-[Ala(2-NH2-benzothiazol-6-yl)]GGFL-OH), the values for the Ki in experiment [2], in experiment [1] and in experiment [4] were 1200 nM, > 10000 nM and 19 nM, respectively. This compound gave an EC50 in experiment [3] of 580 nM.

With `Cc1cc(C(N)=O)cc(C)c1C[C@H](N)C(=O)NCC(=O)NCC(=O)N[C@@H](Cc1ccccc1)C(=O)N[C@@H](CC(C)C)C(=O)O` (H-[Phe(2,6-Me2,4-CONH2)]GGFL-OH), the Ki in experiment [2] worked out at 9.8 nM; in experiment [1], 1300 nM; in experiment [4], 1 nM. Besides, the EC50 in experiment [3] came to 4.1 nM; in experiment [5], 180 nM.

Take `CC(C)C[C@H](NC(=O)[C@H](Cc1ccccc1)NC(=O)CNC(=O)CNC(=O)[C@@H](N)Cc1cccc(C(N)=O)c1)C(=O)O` (H-[Phe(3-CONH2)]GGFL-OH): the Ki in experiment [2] was > 10000 nM; in experiment [1] it was > 10000 nM; in experiment [4], 475 nM.

For `CSCC[C@H](NC(=O)[C@H](Cc1ccccc1)NC(=O)CNC(=O)CNC(=O)[C@@H](N)Cc1ccc(C(N)=O)cc1)C(N)=O` (H-[Phe(4-CONH2)]GGFM-NH2), the Ki in experiment [2] is 18 nM; in experiment [1] it was 460 nM; in experiment [4] it was 1.3 nM. For the same compound, the EC50 in experiment [3] is 10 nM; in experiment [5], 270 nM.

Take `CSCC[C@H](NC(=O)[C@H](Cc1ccccc1)NC(=O)CNC(=O)CNC(=O)[C@@H](N)Cc1ccc(C(N)=O)cc1)C(=O)O` (H-[Phe(4-CONH2)]GGFM-OH): the values for the Ki in experiment [2], in experiment [1] and in experiment [4] were 28 nM, 1030 nM and 1.8 nM, respectively. Besides, the EC50 amounted to 5.2 nM in experiment [3] and 140 nM in experiment [5].

`CC(C)C[C@H](NC(=O)[C@H](Cc1ccccc1)NC(=O)CNC(=O)CNC(=O)[C@@H](N)Cc1cc[n+]([O-])cc1)C(=O)O` (H-[X1]GGFL-OH): the Ki in experiment [2], in experiment [1] and in experiment [4] was > 10000 nM in each case.
